Source: patent US9604940B2 (Chroma Therapeutics Ltd., priority 2012, dated 2017)

Columns and labels:
[1] = test system: MCP-1; test: MCSF-stimulation of human whole blood, MCP-1 levels by sandwich ELISA; format: cell-based; details: inhibitor 2 hours before MCSF 50 ng/ml, 22 hrs, MCP-1 in cell-free supernatants, read-out: Inhibitor activity versus MCP-1
Description: Macrophage Colony-Stimulating Factor (MCSF)-Stimulation of Human Whole Blood
Whole blood was taken by venous puncture using heparinised vacutainers (Becton Dickinson) and diluted in an equal volume of RPMI1640 tissue culture media (Sigma). 100 μl was plated in V-bottomed 96 well tissue culture treated plates. 2 hours after the addition of the inhibitor in 100 μl of RPMI1640 media, the blood was stimulated with MCSF (Peprotech: #300-25-10 uG) at a final concentration of 50 ng/ml and incubated at 37° C. in 5% CO2 for 22 hrs. MCP-1 levels were measured from cell-free supernatants by sandwich ELISA developed from MCP-1/CCL2 Duoset (R&D Systems #DY279). Additional reagents required for ELISA were purchased from Sigma, (BSA: A3059, 10×PBS: D1408, Tween20: P5927) R&D Systems, (colour reagent: #DY999 and stop solution: #DY994) and Costar (96-well EIA plates: #2592). Assays were carried out following the manufacturer's instructions with the following modifications: Cell-free supernatants were diluted 30:70 in reagent diluent before assay. All incubations except capture antibody were carried out with shaking at 550 rpm. 3 washes were carried out between steps, and incubation times were blocking 1.5 hr, sample/standard and detection antibody incubations 2 hr, HRP incubation 30 min, colour development 20 min. • IC50 values were allocated to one of five ranges as follows: • Range A: IC50<100 nM • Range B: 100 nM<IC50<300 nM • Range C: 300 nM<1050<1000 nM • Range D: 1000 nM<IC50<5000 nM • Range E: IC50>5000 nM • NT=not tested

[2] = target: T1, CSF1R (FMS) (Homo sapiens, UniProt P07333); test: CSF1R (FMS) kinase activity, Z'-LYTE biochemical assay (Invitrogen); details: ATP at or close to Km, 60 minute reaction at room temperature, read-out: Inhibitor activity versus CSF-1
T1 construct: purchased Invitrogen (Paisley, UK)
Description: CSF1R (FMS) Kinase Activity
The ability of compounds to inhibit CSF1R (FMS) kinase activity was measured in an assay performed by Invitrogen (Paisley, UK). The Z′-LYTE™ biochemical assay employs a fluorescence-based, coupled-enzyme format and is based on the differential sensitivity of phosphorylated and non-phosphorylated peptides to proteolytic cleavage. The peptide substrate is labelled with two fluorophores—one at each end—that make up a FRET pair. In the primary reaction, the kinase transfers the gamma-phosphate of ATP to a single […] residue in a synthetic FRET-peptide. In the secondary reaction, a site-specific protease recognizes and cleaves non-phosphorylated FRET-peptides. Phosphorylation of FRET-peptides suppresses cleavage by the Development Reagent. Cleavage disrupts FRET between the donor (i.e. coumarin) and acceptor (i.e. fluorescein) fluorophores on the FRET-peptide, whereas uncleaved, phosphorylated FRET-peptides maintain FRET. A […] method, which calculates the ratio (the Emission Ratio) of donor emission to acceptor emission after excitation of the donor fluorophore at 400 nm, is used to quantitate reaction progress.
The final 10 μL Kinase Reaction consists of 0.12-12.3 ng CSF1R (FMS), 2 μM Tyr 01 Peptide and ATP in 50 mM HEPES pH 7.5, 0.01% BRIJ-35, 10 mM MgCl2, 1 mM EGTA. The assay is performed at an ATP concentration at, or close to, the Km. After the 60 minute Kinase Reaction incubation at room temperature, 5 μL of a 1:256 dilution of Development Reagent is added. The assay plate is incubated for a further 60 minutes at room temperature and read on a fluorescence plate reader.
Duplicate data points are generated from a ⅓ log dilution series of a stock solution of test compound in DMSO. Nine dilutions steps are made from a top concentration of 10 mM, and a ‘no compound’ blank is included. Data is collected and analysed using XLfit software from IDBS. The dose response curve is curve fitted to model number 205 (sigmoidal dose-response model). From the curve generated, the concentration giving 50% inhibition is determined and reported.

T1 sequence (P07333 20-972): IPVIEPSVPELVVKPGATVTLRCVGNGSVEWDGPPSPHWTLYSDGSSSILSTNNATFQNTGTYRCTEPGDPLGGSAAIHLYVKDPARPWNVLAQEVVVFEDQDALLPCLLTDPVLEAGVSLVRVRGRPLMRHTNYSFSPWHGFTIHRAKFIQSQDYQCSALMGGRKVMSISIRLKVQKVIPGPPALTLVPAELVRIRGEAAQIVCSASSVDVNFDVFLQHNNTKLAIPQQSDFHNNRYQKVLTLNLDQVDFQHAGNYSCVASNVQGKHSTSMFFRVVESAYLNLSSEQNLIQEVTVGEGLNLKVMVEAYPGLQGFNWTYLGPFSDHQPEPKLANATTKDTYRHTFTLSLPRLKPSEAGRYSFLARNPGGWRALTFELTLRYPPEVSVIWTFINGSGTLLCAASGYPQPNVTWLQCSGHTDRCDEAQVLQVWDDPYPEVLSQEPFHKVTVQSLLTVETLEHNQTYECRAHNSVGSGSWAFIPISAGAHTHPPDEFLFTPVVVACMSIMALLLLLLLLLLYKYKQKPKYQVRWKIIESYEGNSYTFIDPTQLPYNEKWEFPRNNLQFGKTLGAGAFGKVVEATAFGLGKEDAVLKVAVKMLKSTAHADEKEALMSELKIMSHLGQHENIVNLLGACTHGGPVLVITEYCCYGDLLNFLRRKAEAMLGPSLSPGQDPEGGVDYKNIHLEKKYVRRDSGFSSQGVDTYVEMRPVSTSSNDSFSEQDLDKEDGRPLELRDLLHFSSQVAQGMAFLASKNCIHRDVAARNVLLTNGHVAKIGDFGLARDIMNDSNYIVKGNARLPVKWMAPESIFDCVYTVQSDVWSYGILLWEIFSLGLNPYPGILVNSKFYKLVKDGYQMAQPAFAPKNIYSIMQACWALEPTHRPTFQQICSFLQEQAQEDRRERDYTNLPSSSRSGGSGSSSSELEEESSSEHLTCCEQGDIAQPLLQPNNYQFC

Row | SMILES | IC50 [1] [nM] | IC50 [2] [nM]
1 | Nc1ncc(-c2cccc(CCNC3CCN[C@H](C(=O)OC4CCCC4)C3)c2)nc1NCc1c(Cl)cccc1Cl (stereo partly drawn) [Example 51, Cyclopentyl (2S)-4-{[2-(3-{5-amino-6-[(2,6-dichlorobenzyl)amino]pyrazin-2-yl}phenyl)ethyl]amino}piperidine-2-carboxylate] | 100 to 300 | < 100
2 | CN(C(=O)c1ccc(-c2cnc(N)c(NCc3c(Cl)cccc3Cl)n2)cc1)C1CCN[C@@H](C(=O)OC(C)(C)C)C1 (stereo partly drawn) [Example 5, tert-Butyl (2R)-4-[(4-{5-amino-6-[(2,6-dichlorobenzyl)amino]pyrazin-2-yl}benzoyl)(methyl)amino]piperidine-2-carboxylate] | 1000 to 5000 | < 100
3 | CC(C)C[C@H](NCCn1cc(-c2cnc(N)c(NCc3c(Cl)cccc3Cl)n2)cn1)C(=O)OC(C)(C)C [Example 58, tert-Butyl N-[2-(4-{5-amino-6-[(2,6-dichlorobenzyl)amino]pyrazin-2-yl}-1H-pyrazol-1-yl)ethyl]-L-leucinate] | > 5000 | > 5000
4 | Nc1ncc(-c2cccc(CNC3CCN[C@H](C(=O)OC4CCCC4)C3)c2)nc1NCc1c(Cl)cccc1Cl (stereo partly drawn) [Example 35, Cyclopentyl (2S)-4-[(3-{5-amino-6-[(2,6-dichlorobenzyl)amino]pyrazin-2-yl}benzyl)amino]piperidine-2-carboxylate di-formate] | 300 to 1000 | < 100
5 | Nc1ncc(-c2cccc(CNC3(C(=O)OC4CCCC4)CCC3)c2)nc1NCc1c(Cl)cccc1Cl [Example 42, Cyclopentyl 1-[(3-{5-amino-6-[(2,6-dichlorobenzyl)amino]pyrazin-2-yl}benzyl)amino]cyclobutanecarboxylate di-formate] | 300 to 1000 | > 5000
6 | Nc1ncc(-c2ccc(CNC3CCN[C@@H](C(=O)OC4CCCC4)C3)cc2)nc1NCc1c(F)cccc1F (stereo partly drawn) [Example 14, Cyclopentyl (2R)-4-[(4-{5-amino-6-[(2,6-difluorobenzyl)amino]pyrazin-2-yl}benzyl)amino]piperidine-2-carboxylate di-formate] | 300 to 1000 | 100 to 300
7 | CC(=O)N(Cc1ccc(-c2cnc(N)c(NCc3c(Cl)cccc3Cl)n2)cc1)C1CCN[C@@H](C(=O)OC2CCCC2)C1 (stereo partly drawn) [Example 31, Cyclopentyl (2R)-4-[acetyl(4-{5-amino-6-[(2,6-dichlorobenzyl)amino]pyrazin-2-yl}benzyl)amino]piperidine-2-carboxylate] | < 100 | 100 to 300
8 | CC(C)(C)OC(=O)[C@H]1CC(NCc2ccc(-c3cnc(N)c(NCc4c(Cl)cccc4Cl)n3)cc2Cl)CCN1 (stereo partly drawn) [Example 25, tert-Butyl (2R)-4-[(4-{5-amino-6-[(2,6-dichlorobenzyl)amino]pyrazin-2-yl}-2-chlorobenzyl)amino]piperidine-2-carboxylate] | 300 to 1000 | 100 to 300
9 | Cc1cc(-c2cnc(N)c(NCc3c(Cl)cccc3Cl)n2)ccc1CNC1CCN[C@@H](C(=O)OC2CCCC2)C1 (stereo partly drawn) [Example 19, Cyclopentyl (2R)-4-[(4-{5-amino-6-[(2,6-dichlorobenzyl)amino]pyrazin-2-yl}-2-methylbenzyl)amino]piperidine-2-carboxylate] | < 100 | < 100
10 | CCc1cc(-c2cnc(N)c(NCc3c(Cl)cccc3Cl)n2)ccc1CN1CCNC(C(=O)OC2CCCC2)C1 (stereo not shown) [Example 20, Cyclopentyl 4-(4-{5-amino-6-[(2,6-dichlorobenzyl)amino]pyrazin-2-yl}-2-ethylbenzyl)piperazine-2-carboxylate] | < 100 | 1000 to 5000
11 | CC(C)(C)OC[C@H](NCc1cccc(-c2cnc(N)c(NCc3c(Cl)cccc3Cl)n2)c1)C(=O)OC(C)(C)C [Example 44, tert-Butyl N-(3-{5-amino-6-[(2,6-dichlorobenzyl)amino]pyrazin-2-yl}benzyl)-O-tert-butyl-L-serinate] | > 5000 | > 5000
